Assay results taken from US6455472B1, “Phenyl-substituted cyclic enaminones” (Bayer Aktiengesellschaft, priority 1998, dated 2002).

tested on: caterpillars of the army worm (Spodoptera frugiperda); experiment: Spodoptera frugiperda test; format: in vivo; details: cabbage leaves (Brassica oleracea) dipped into preparation of active compound; concentration and time not stated
Method: Solvent: 7 parts by weight of dimethylformamide
Emulsifier:: 1 part by weight of alkylaryl polyglycol ether
To produce a suitable preparation of active compound, 1 part by weight of active compound is mixed with the stated amounts of solvent and emulsifier, and the concentrate is diluted with water to the desired concentration.
Cabbage leaves (Brassica oleracea) are treated by being dipped into the preparation of active compound of the desired concentration and are populated with caterpillars of the army worm (Spodoptera frugiperda) while the leaves are still moist.
After the desired period of time, the kill in % is determined. 100% means that all caterpillars have been killed; 0% means that none of the caterpillars have been killed.

SMILES | activity (kill in %) against Spodoptera frugiperda caterpillars
N#CC(C(=O)c1ccc(Cl)cc1)=C1CCCN1Cc1ccc(Cl)nc1 [Preparation Example 3, 3-(4-chlorophenyl)-2-[1-(6-chloropyridin-3-yl-methyl)-pyrrolidin-2-yli-dene]-3-oxo-propionitrile] | good activity

tested on: weeds; experiment: Post emergence test, weeds; format: in vivo; details: sprayed, assessed after 3 weeks, application rate not stated
Method: (§1) Solvent: 5 parts by weight of acetone
(§2) Emulsifier: 1 part by weight of alkylaryl polyglycol ether
(§3) To produce a suitable preparation of active compound, 1 part by weight of active compound is mixed with the stated amount of solvent, the stated amount of emulsifier is added and the concentrate is diluted with water to the desired concentration.
Test plants which have a height of 5 to 15 cm are sprayed with the preparation of active compound such that the particular desired amounts of active compound are applied per unit area. After 3 weeks, the degree of damage to the plants is assessed in % damage in comparison to the development of the untreated controls.

SMILES | activity against weeds (% damage)
N#C/C(C(=O)c1ccc(-c2ccc(Cl)cc2)cc1)=C1\CCCCN1 [I-1-a-54, 3-(4′-chloro-biphenyl-4-yl)-3-oxo-2-piperidin-2-ylidene-propionitrile] | strong activity

tested on: weeds; experiment: Pre-emergence test, weeds; format: in vivo; details: soil watered 24 hours after sowing, assessed after three weeks, application rate not stated
Method: as §1, §2, §3
Seeds of the test plants are sown in normal soil and, after 24 hours, watered with the preparation of active compound. The amount of water per unit area is advantageously kept constant. The concentration of active compound in the preparation is immaterial, only the active compound application rate per unit area matters. After three weeks, the degree of damage to the plants is assessed in % damage in comparison with the development of the untreated control.

SMILES | activity against weeds (% damage)
N#C/C(C(=O)c1ccc(-c2ccc(Cl)cc2)cc1)=C1\CCCCN1 [I-1-a-54, 3-(4′-chloro-biphenyl-4-yl)-3-oxo-2-piperidin-2-ylidene-propionitrile] | strong activity

tested on: not given; experiment: not given; details: not given

melting point | SMILES
146 °C | COC(=O)CSc1ccc(C(=O)/C(C#N)=C2/CCCCN2)cn1 [I-2-a-6]
137 °C | N#C/C(C(=S)c1ccc(Cl)cc1)=C1\CCCCN1 [I-1-a-151, 3-(4-chloro-phenyl)-3-thio-2-piperidin-2-ylidene-propionitrile]
222 to 224 °C | CCOC(=O)C1CC/C(=C(\C#N)C(=O)c2ccccc2Cl)N1 (stereo not drawn) [I-1-d-4]
155 °C | N#C/C(C(=O)c1ccc(SCC(=O)O)nc1)=C1\CCCCN1 [I-2-a-7]

The next lines start with the compound.

SMILES | melting point
N#C/C(C(=O)c1ccc(Cl)cc1)=C1\CCCN1 [Example 1, 3-(4-chlorophenyl)-3-oxo-2-pyrrolidin-2-ylidene-propionitrile] | 156 to 158 °C
N#C/C(C(=O)c1ccc(Cl)cc1)=C1\CCC(C(=O)O)N1 (centres unmarked) [Example 8, 5-[2-(4-chloro-phenyl)-1-cyano-2-oxo-ethylidene]-pyrrolidine-2-carboxylic acid] | 134 to 136 °C
N#C/C(C(=O)c1ccc(NS(=O)(=O)C(F)(F)F)cc1)=C1\CCCCN1 [I-1-a-138, 3-[4-(trifluoromethanesulphonylamino)-phenyl]-3-oxo-2-piperidin-2-ylidene-propionitrile] | 197 °C
N#C/C(C(=O)c1ccc(-c2ccc(Cl)cc2)cc1)=C1\CCCCN1 [I-1-a-54, 3-(4′-chloro-biphenyl-4-yl)-3-oxo-2-piperidin-2-ylidene-propionitrile] | 134 °C
CCOC(=O)C1CC/C(=C(\C#N)C(=O)c2ccc(Cl)cc2)N1 (centres unmarked) [Example 7, ethyl 5-[2-(4-chloro-phenyl)-1-cyano-2-oxo-ethylidene]-pyrrolidine-2-carboxylate] | 108 to 110 °C
CN1CCC/C1=C(\C#N)C(=O)c1ccc(Cl)cc1 [I-1-a-110, 3-(4-chloro-phenyl)-3-oxo-2-(1-methyl-pyrrolidin-2-ylidene)-propionitrile] | 115 °C
N#C/C(C(=O)c1ccc(Cl)cc1)=C1\CCCN1C(=O)c1ccc(Cl)cc1 [Example 5, 2-[1-(4-chlorobenzoyl)pyrrolidin-2-ylidene]-3-(4-chlorophenyl)-3-oxo-propionitrile] | 218 °C
